According to the OligoGym collection:
Where “and” joins values, the source holds several entries; their conditions need not be identical. Identical values can stand only once. After the bases stand the sugars from the 5' end (letter, count) and the backbone: PS all phosphorothioate, else s phosphorothioate and o phosphodiester by linkage. Methylation of C is not given here. e = 2'-O-(2-methoxyethyl) (MOE); l = locked nucleic acid (LNA); k = constrained ethyl (cEt); d = 2'-deoxy (DNA)

How the values were obtained:
[1] = biological target: MYH7; settings: ASO, CC-2580, 5 µM
[2] = biological target: ANGPTL2; settings: ASO
[3] = biological target: KRAS; settings: ASO

CTTGGCAATGATCTCATCC (sugars l4 d13 l2, PS)
target mRNA inhibition [1]: 60% and 45%

GTTGATGATGCGGTTGTA (sugars l1 d15 l2, PS)
target mRNA inhibition ([2]; 5 µM): 44.2%
target mRNA inhibition ([2]; 25 µM): 53.9%

TCCAAGGCACTCTATGAT (sugars l2 d14 l2, PS)
target mRNA inhibition ([2]; 5 µM): 13.8%
target mRNA inhibition ([2]; 25 µM): 27.7%

ACTGGTGAGGAGTTGTT (sugars l2 d13 l2, PS)
target mRNA inhibition ([2]; 5 µM): 26%
target mRNA inhibition ([2]; 25 µM): 25.8%

ATAACGCCCACTGAGA (sugars l1 d11 l4, PS)
target mRNA inhibition ([2]; 5 µM): 24.4%
target mRNA inhibition ([2]; 25 µM): 39.7%

CAGCTTGGCGATGATCT (sugars llddddddddldlddll, PS)
target mRNA inhibition [1]: 26% and 5%

CCTTGCAAAATGGTGGTT (sugars l2 d14 l2, PS)
target mRNA inhibition ([2]; 5 µM): 49.6%
target mRNA inhibition ([2]; 25 µM): 57.4%

CCAAGGGCACGTTTTA (sugars l2 d12 l2, PS)
target mRNA inhibition ([2]; 5 µM): -4%
target mRNA inhibition ([2]; 25 µM): 13.2%

CAGCTTGGCGATGATCT (sugars ldldlddlddddddlll, PS)
target mRNA inhibition [1]: 18% and 3%

AATTACTCCACACTTTCA (sugars l3 d12 l3, PS)
target mRNA inhibition ([2]; 5 µM): 55.7%
target mRNA inhibition ([2]; 25 µM): 61.6%

GTGGGCAGGAGAAGGGAC (sugars l1 d15 l2, PS)
target mRNA inhibition ([2]; 5 µM): 17.8%
target mRNA inhibition ([2]; 25 µM): -18.2%

CAGCTTGGCGATGATCT (sugars ldldddddddllddlll, PS)
target mRNA inhibition [1]: 46% and 28%

TGACCCCTGATTATTCA (sugars l1 d13 l3, PS)
target mRNA inhibition ([2]; 5 µM): 7.55%
target mRNA inhibition ([2]; 25 µM): 4.06%

CAGCTTGGCGATGATCT (sugars lddllddddddllddll, PS)
target mRNA inhibition [1]: 9% and -10%

CAGCTTGGCGATGATCT (sugars lddlddddddlllddll, PS)
target mRNA inhibition [1]: -30%

CAGCTTGGCGATGATCT (sugars lddldddddddldddll, PS)
target mRNA inhibition [1]: -4% and -11%

AGTGAGAGGAAGTCAGGG (sugars l1 d15 l2, PS)
target mRNA inhibition ([2]; 5 µM): 39.6%
target mRNA inhibition ([2]; 25 µM): 46.3%

CAGCTTGGCGATGATCT (sugars lllddddddddldldll, PS)
target mRNA inhibition [1]: 28% and 6%

AAGTTGATAGTTTATCTCC (sugars l3 d14 l2, PS)
target mRNA inhibition ([2]; 5 µM): 76.3%
target mRNA inhibition ([2]; 25 µM): 83.8%

CAGCTTGGCGATGATCT (sugars lddlddldddddldlll, PS)
target mRNA inhibition [1]: -32% and -42%

CAGCTTGGCGATGATCT (sugars l2 d6 l1 d5 l3, PS)
target mRNA inhibition [1]: 7% and -9%

CTTGGCAATGATCTCATCC (sugars lldldddddddldldldll, PS)
target mRNA inhibition [1]: 39% and 26%

GCAGCTCATTGTTGAGC (sugars l1 d14 l2, PS)
target mRNA inhibition ([2]; 5 µM): 8.7%

GAACTCAGCCCAGTAGA (sugars l1 d14 l2, PS)
target mRNA inhibition ([2]; 5 µM): 1.82%
target mRNA inhibition ([2]; 25 µM): 15.7%

TCAGCTTGGCGATGATCT (sugars lddldddddddlddllll, PS)
target mRNA inhibition [1]: 43% and 45%

CTTGGCAATGATCTCATCC (sugars lddlddddddddlddldll, PS)
target mRNA inhibition [1]: 59% and 39%

CAGCTTGGCGATGATCT (sugars l2 d10 l1 d2 l2, PS)
target mRNA inhibition [1]: 64% and 43%

TCAGCTTGGCGATGATCT (sugars l2 d9 l1 d2 l4, PS)
target mRNA inhibition [1]: 31% and 40%

CTTGGCAATGATCTCATCC (sugars llldddddddlddldldll, PS)
target mRNA inhibition [1]: 60% and 35%

CAGCTTGGCGATGATCT (sugars lldddddddlldlddll, PS)
target mRNA inhibition [1]: 21% and 29%

CAGCTTGGCGATGATCT (sugars lddlddldlldddddll, PS)
target mRNA inhibition [1]: -27% and -45%

CAGCTTGGCGATGATCT (sugars lldddldddddldldll, PS)
target mRNA inhibition [1]: 25% and 16%

ATCTTATTTTGTTTAACA (sugars l4 d10 l4, PS)
target mRNA inhibition ([2]; 5 µM): 60.2%
target mRNA inhibition ([2]; 25 µM): 51.7%

CAGCTTGGCGATGATCT (sugars l4 d9 l4, PS)
target mRNA inhibition [1]: 27% and 4%

TTATAAACTCCTTGCTCTA (sugars l1 d14 l4, PS)
target mRNA inhibition ([2]; 5 µM): 33.2%
target mRNA inhibition ([2]; 25 µM): 42.4%

CTTGGCAATGATCTCATCC (sugars l3 d12 l4, PS)
target mRNA inhibition [1]: 89% and 66%

TGATGATGCGGTTGTAG (sugars l3 d12 l2, PS)
target mRNA inhibition ([2]; 5 µM): 64.2%
target mRNA inhibition ([2]; 25 µM): 70.3%

TTTTGAGATTCCCCCAAA (sugars l1 d13 l4, PS)
target mRNA inhibition ([2]; 5 µM): 24.8%
target mRNA inhibition ([2]; 25 µM): 24.7%

ATAGCAGGGAGTGACC (sugars l2 d12 l2, PS)
target mRNA inhibition ([2]; 5 µM): 8.4%
target mRNA inhibition ([2]; 25 µM): 26.5%

CAGCTTGGCGATGATCT (sugars lddlldddldddddlll, PS)
target mRNA inhibition [1]: 1% and -8%

GTATTGTGAGGAGTTTC (sugars l4 d11 l2, PS)
target mRNA inhibition ([2]; 5 µM): 80%
target mRNA inhibition ([2]; 25 µM): 84.3%

ATGATGCGGTTGTAGGT (sugars l2 d13 l2, PS)
target mRNA inhibition ([2]; 5 µM): 57.5%

CCAGTTCCTGAAGAAGTT (sugars l2 d14 l2, PS)
target mRNA inhibition ([2]; 5 µM): 16.3%
target mRNA inhibition ([2]; 25 µM): 16.7%

AACCCCAGAGGATATGT (sugars l1 d13 l3, PS)
target mRNA inhibition ([2]; 5 µM): 49.3%
target mRNA inhibition ([2]; 25 µM): 58.9%

GCTCATTGTTGAGCAGC (sugars l1 d14 l2, PS)
target mRNA inhibition ([2]; 5 µM): -2.2%
target mRNA inhibition ([2]; 25 µM): 3.15%

ATGAAGTCAGTCAGAGCCT (sugars l1 d16 l2, PS)
target mRNA inhibition ([2]; 5 µM): 27.6%
target mRNA inhibition ([2]; 25 µM): 22.6%

AGTTACTCTTAGCCAAA (sugars l3 d10 l4, PS)
target mRNA inhibition ([2]; 5 µM): 82.6%
target mRNA inhibition ([2]; 25 µM): 84.8%

CAGCTTGGCGATGATCT (sugars ldldllddlddddddll, PS)
target mRNA inhibition [1]: -17% and -29%

ATCTGGTTGATGATGCGG (sugars l2 d14 l2, PS)
target mRNA inhibition ([2]; 5 µM): 75.2%
target mRNA inhibition ([2]; 25 µM): 82.3%

CAGCTTGGCGATGATCT (sugars ldldddddddlddldll, PS)
target mRNA inhibition [1]: 39% and 27%

CAGCTTGGCGATGATCT (sugars lddldddddddldllll, PS)
target mRNA inhibition [1]: 7% and -16%

ATTTACTGTCTGCCCAG (sugars l2 d12 l3, PS)
target mRNA inhibition ([2]; 5 µM): 54.6%
target mRNA inhibition ([2]; 25 µM): 59.5%

AGTGTTTAAGAAGAAATG (sugars l4 d10 l4, PS)
target mRNA inhibition ([2]; 5 µM): 41.7%
target mRNA inhibition ([2]; 25 µM): 54.8%

CAGCTTGGCGATGATCT (sugars ldldlddddddldldll, PS)
target mRNA inhibition [1]: 5% and -12%

CATTTTGAGATTCCCCC (sugars l1 d14 l2, PS)
target mRNA inhibition ([2]; 5 µM): 27.1%
target mRNA inhibition ([2]; 25 µM): 14%

GCAGTTATCACACCACA (sugars l1 d13 l3, PS)
target mRNA inhibition ([2]; 5 µM): 38.9%
target mRNA inhibition ([2]; 25 µM): 44%

CTTAATGGGCAGTAATA (sugars l4 d9 l4, PS)
target mRNA inhibition ([2]; 5 µM): 32.6%
target mRNA inhibition ([2]; 25 µM): 42.3%

ACAGAGACTAGGCATTT (sugars l3 d10 l4, PS)
target mRNA inhibition ([2]; 5 µM): 74.1%
target mRNA inhibition ([2]; 25 µM): 83.9%

CTTGGCAATGATCTCATCC (sugars lldlddddddlddldldll, PS)
target mRNA inhibition [1]: 1%

GACTAACTGTTGAAATTG (sugars l3 d11 l4, PS)
target mRNA inhibition ([2]; 5 µM): 26.9%
target mRNA inhibition ([2]; 25 µM): 30.8%

CAGCTTGGCGATGATCT (sugars ldlddlddddddlddll, PS)
target mRNA inhibition [1]: 47% and 25%

AGCTCAGTGGTGAGATGG (sugars l1 d15 l2, PS)
target mRNA inhibition ([2]; 5 µM): 54.1%
target mRNA inhibition ([2]; 25 µM): 54.8%

ATTTTGAGATTCCCCCAA (sugars l1 d14 l3, PS)
target mRNA inhibition ([2]; 5 µM): 3.44%
target mRNA inhibition ([2]; 25 µM): 20.9%

TATTAGCATCACTACTTT (sugars l4 d11 l3, PS)
target mRNA inhibition ([2]; 5 µM): 48%
target mRNA inhibition ([2]; 25 µM): 52.1%

GATGATGCGGTTGTAG (sugars l4 d10 l2, PS)
target mRNA inhibition ([2]; 5 µM): 70%
target mRNA inhibition ([2]; 25 µM): 75.2%

CTCCGGTAATGGCCCC (sugars l1 d12 l3, PS)
target mRNA inhibition ([2]; 5 µM): 28.6%
target mRNA inhibition ([2]; 25 µM): 25.4%

ACATAATGTTTCATGCT (sugars l4 d11 l2, PS)
target mRNA inhibition ([2]; 5 µM): 46%
target mRNA inhibition ([2]; 25 µM): 45.8%

TGGTTGATGATGCGGTTGTA (sugars l1 d17 l2, PS)
target mRNA inhibition ([2]; 5 µM): 48%
target mRNA inhibition ([2]; 25 µM): 53%

CAGGCGTCTCTGGATGA (sugars l1 d14 l2, PS)
target mRNA inhibition ([2]; 5 µM): 17.4%
target mRNA inhibition ([2]; 25 µM): 10.6%

AGATGAATATAGTTCTC (sugars l4 d10 l3, PS)
target mRNA inhibition ([2]; 5 µM): 55.3%
target mRNA inhibition ([2]; 25 µM): 65.9%

GAGTTCATGTTGCGGC (sugars l1 d13 l2, PS)
target mRNA inhibition ([2]; 5 µM): 21.4%
target mRNA inhibition ([2]; 25 µM): 24.9%

CAGGCCAACACTAACTCG (sugars l1 d14 l3, PS)
target mRNA inhibition ([2]; 5 µM): 73.4%
target mRNA inhibition ([2]; 25 µM): 84.2%

AAGTTGATAGTTTATCTCCT (sugars l2 d16 l2, PS)
target mRNA inhibition ([2]; 5 µM): 60.9%
target mRNA inhibition ([2]; 25 µM): 72%

TTGACAGGGATTAGGCA (sugars l1 d13 l3, PS)
target mRNA inhibition ([2]; 5 µM): 11.6%
target mRNA inhibition ([2]; 25 µM): 23.9%

CAGGCACACTAATGAGA (sugars l2 d12 l3, PS)
target mRNA inhibition ([2]; 5 µM): 9.64%
target mRNA inhibition ([2]; 25 µM): 9.52%

GAACCTCAATATCCTGC (sugars l1 d13 l3, PS)
target mRNA inhibition ([2]; 5 µM): 62.6%
target mRNA inhibition ([2]; 25 µM): 72.6%

CAGAACAATGGGGAGGA (sugars l3 d12 l2, PS)
target mRNA inhibition ([2]; 5 µM): 58.5%
target mRNA inhibition ([2]; 25 µM): 51.1%

ACAACTCACATTCATAG (sugars l4 d9 l4, PS)
target mRNA inhibition ([2]; 5 µM): 49%
target mRNA inhibition ([2]; 25 µM): 54.7%

AACCATTTTGAGATTCCCC (sugars l1 d16 l2, PS)
target mRNA inhibition ([2]; 5 µM): 28.5%
target mRNA inhibition ([2]; 25 µM): 17.6%

CAGCTCATTGTTGAGCAG (sugars l2 d14 l2, PS)
target mRNA inhibition ([2]; 5 µM): -19%
target mRNA inhibition ([2]; 25 µM): 7.91%

AAATTGTGCAATGGTG (sugars k3 d10 k3, PS)
target mRNA inhibition ([3]; A431, 2 µM): 48%

GAAAAGTGTTTATGCA (sugars k3 d10 k3, PS)
target mRNA inhibition ([3]; A431, 2 µM): 60%

CTTGATTTGTCAGCAG (sugars kkddddddddkekekk, PS)
target mRNA inhibition ([3]; A431, 0.037 µM): 55%
target mRNA inhibition ([3]; A431, 2 µM): 33%

TGTACTAGTATGCCTT (sugars k3 d10 k3, PS)
target mRNA inhibition ([3]; A431, 0.185 µM): 18% and 9%
target mRNA inhibition ([3]; A431, 1.667 µM): 61% and 43%
target mRNA inhibition ([3]; A431, 2 µM): 66%
target mRNA inhibition ([3]; A431, 5 µM): 74% and 64%

ATGGTGTAACATAGGT (sugars k3 d9 k3 e1, PS)
target mRNA inhibition ([3]; A431, 2 µM): 47%

TTCTGTCTATTCATAC (sugars k3 d10 k3, PS)
target mRNA inhibition ([3]; A431, 2 µM): 10%

ACCATTCAAAGTTCAC (sugars k3 d10 k3, PS)
target mRNA inhibition ([3]; A431, 2 µM): 34%
